Data set [1] has as its system Rattus norvegicus. The data set is described as follows: Effect on haloperidol-induced […] activity in Sprague-Dawley rat model assessed as locomotor activity at 3 mg/kg, po and measured after 60 mins. The class given is functional, organism-based.
Data set [2] in a line: Metabolic stability in rat liver microsomes assessed as intrinsic clearance at 1 uM preincubated for 60 mins followed by NADPH addition and measured after 60 mins by LC-MS/MS analysis. The class given is ADME, Microsome. The note with it: time 120 min, read-out: CLH.
Data set [3] has as its target G-protein coupled receptor 55 (Homo sapiens, UniProt Q9Y2T6). The data set can be described thus: Agonist activity at human GPR55 expressed in human HEK293 cells assessed as effect on calcium flux incubated for 5 mins by FLIPR analysis. The class given is functional, cell-based.
Data set [4] is described as follows: Agonist activity at rat GPR55 expressed in human HEK293 cells assessed as effect on calcium flux incubated for 5 mins by FLIPR analysis. The note with it: HEK293, 5 min. On the technique in general: Calcium assays in cells follow changes in intracellular calcium, usually with a dye or a luminescent sensor.
Data set [5] concerns Striatal neuron. The data set can be described thus: Neurophysiological effect on Wistar rat Striatal neuron assessed as decrease in potential firing frequency at 1 uM and measured after 3 mins by Whole-cell patch clamp assay. The class given is functional, cell-based. (In general: Patch clamp records ionic current or voltage across a cell membrane.)
A short description of data set [6]: Toxicity in Wistar rat Striatal neuron assessed as cell viability at 1 uM. The class given is cell-based.

Activity, microsomal CLint and EC50 data for 13 compounds are collected here from ChEMBL document CHEMBL5365484, “Discovery and Characterization of Novel CNS-Penetrant GPR55 Agonists” (J Med Chem, 2023).

The term EC50 denotes the midpoint of the concentration-response curve.

Calls of active or inactive are those of the source. No cut-off for these calls is given here.

G-protein coupled receptor 55, sequence (Q9Y2T6 whole entry): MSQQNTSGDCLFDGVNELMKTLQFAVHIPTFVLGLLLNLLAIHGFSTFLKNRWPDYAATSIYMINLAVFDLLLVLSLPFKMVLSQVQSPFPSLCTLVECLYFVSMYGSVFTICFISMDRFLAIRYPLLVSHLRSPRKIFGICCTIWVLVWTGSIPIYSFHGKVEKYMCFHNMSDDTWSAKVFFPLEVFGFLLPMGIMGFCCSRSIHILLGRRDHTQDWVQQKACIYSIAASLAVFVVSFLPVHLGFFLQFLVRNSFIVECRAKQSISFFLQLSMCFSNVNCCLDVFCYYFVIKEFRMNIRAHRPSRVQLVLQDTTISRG

As to `CCn1c(=O)c2c(nc(/C=C/c3ccc(OC)c(OC)c3)n2C)n(CC)c1=O`, the result in data set [1] was Active.
With `C[C@@H](Nc1ccc(-c2ccc3oc(=O)n(C)c3c2)cn1)c1ccc(F)cc1`, the microsomal CLint at 1 µM in data set [2] came out at 3.9 µL/min/mg.
For the compound `C[C@@H](Nc1ccc(-c2ccc3oc(=O)[nH]c3c2)cn1)c1ccc(F)cc1`, the 50% effective concentration (EC50) in data set [3] stood at 573 nM; in data set [4] it was 2400 nM.
Take `Cc1cncc(-c2ccc(N[C@H](C)c3ccc(F)cc3)nc2)c1`: the microsomal CLint at 1 µM in data set [2] was 234 µL/min/mg.
Regarding `C[C@@H](Nc1ccc(-c2cncc(S(C)(=N)=O)c2)cn1)c1ccc(F)cc1` (stereo not given in full), the microsomal CLint at 1 µM in data set [2] is 2 µL/min/mg.
For the compound `C[C@@H](Nc1ccc(-c2cnn(C)c2)cn1)c1ccc(F)cc1`, the EC50 was 427 nM in data set [3] and 3510 nM in data set [4].
For `CCc1cncc(-c2ccc(N[C@H](C)c3ccc(F)cc3)nc2)c1`, the microsomal CLint at 1 µM in data set [2] worked out at 48 µL/min/mg.
On to `C[C@@H](Nc1ccc(-c2cncc(C3CC3)c2)cn1)c1ccc(F)cc1`, for which the EC50 in data set [3] turned out to be 13.8 nM; in data set [4], 514 nM. The microsomal CLint at 1 µM in data set [2] was 10 µL/min/mg.
In the case of `C[C@@H](Nc1cnc(-c2cncc(CC(F)F)c2)cn1)c1ccc(F)cc1`, the half-maximal effective concentration (EC50) in data set [3] was 0.439 nM; in data set [4] it was 4.13 nM. Besides, the result in data set [5] was Active. Besides, the microsomal CLint at 1 µM in data set [2] stood at 16 µL/min/mg. In addition, the Activity result in data set [6] was “Non-Toxic”.
As for `C[C@@H](Nc1ncc(-c2cncc(CC(F)(F)F)c2)nn1)c1ccc(F)cc1`, in data set [2], the microsomal CLint at 1 µM was 6.4 µL/min/mg.
Take `C[C@@H](Nc1ccc(-c2cncc(S(C)(=O)=O)c2)cn1)c1ccc(F)cc1`: the EC50 came to 85.1 nM in data set [3] and 716 nM in data set [4]. In addition, in data set [2], the microsomal CLint at 1 µM came to 3.8 µL/min/mg.
Regarding `C[C@@H](Nc1ccc(-c2cncc(C(F)(F)F)c2)cn1)c1ccc(F)cc1`, the microsomal CLint at 1 µM in data set [2] turned out to be 5.2 µL/min/mg.
For the compound `CCc1cncc(-c2cnc(N[C@H](C)c3ccc(F)cc3)cn2)c1`, the figures for the concentration for a half-maximal effect (EC50) in data set [3] and in data set [4] were 3.01 nM and 32.5 nM, respectively. For the same compound, in data set [2], the microsomal CLint at 1 µM came to 78 µL/min/mg.
